Experimental data: patent US20140275094A1, “METHOD FOR TREATING PULMONARY ARTERIAL HYPERTENSION IN A PATIENT NOT HAVING IDIOPATHIC PULMONARY FIBROSIS” (GILEAD SCIENCES, INC., priority 2012, published 2014)

Assays:
[1] = tested on: patients with PAH (WHO Group 1); assay: ARIES-1 12-week placebo-controlled study; type: in vivo, human; conditions: for Mean change from baseline in 6-minute walk distance / Placebo-adjusted mean change from baseline in 6-minute walk distance / Placebo-adjusted median change from baseline in 6-minute walk distance: 12 weeks; for Mean change from baseline in 6-minute walk distance: mean ± SD
Experimental: Two 12-week, randomized, double-blind, placebo-controlled, multicenter studies were conducted in 393 patients with PAH (WHO Group 1). The two studies were identical in design except for the doses of ambrisentan and the geographic region of the investigational sites. ARIES-1 (Ambrisentan in Pulmonary Arterial Hypertension, Randomized, Double-Blind, Placebo-Controlled, Multicenter, Efficacy Studies) compared once-daily doses of 5 mg and 10 mg ambrisentan to placebo, while ARIES-2 compared once-daily doses of 2.5 mg and 5 mg ambrisentan to placebo. In both studies, ambrisentan or placebo was added to current therapy, which could have included a combination of anticoagulants, diuretics, calcium channel blockers, or digoxin, but not epoprostenol, treprostinil, iloprost, bosentan, or sildenafil. The primary study endpoint was 6-minute walk distance. In addition, clinical worsening, WHO functional class, dyspnea, and SF-36® Health Survey were assessed.
Patients had idiopathic or heritable PAH (64%) or PAH associated with connective tissue diseases (32%), HIV infection (3%), or anorexigen use (1%). There were no patients with PAH associated with congenital heart disease.
Patients had WHO functional class I (2%), II (38%), III (55%), or IV (5%) symptoms at baseline. The mean age of patients was 50 years, 79% of patients were female, and 77% were Caucasian.
Clinical Worsening: Time to clinical worsening of PAH was defined as the first occurrence of death, lung transplantation, hospitalization for PAH, atrial septostomy, study withdrawal due to the addition of other PAH therapeutic agents or study withdrawal due to early escape. Early escape was defined as meeting two or more of the following criteria: a 20% decrease in the 6-minute walk distance; an increase in WHO functional class; worsening right ventricular failure; rapidly progressing cardiogenic, hepatic, or renal failure; or refractory systolic hypotension.

[2] = Cumulative incidence of treatment-emergent serum aminotransferase abnormalities in clinical trials; type: in vivo, human
Excerpt: The ambrisentan clinical development program included placebo-controlled and non-placebo-controlled studies. One Phase 2 study (AMB-220) and two Phase 3 studies (AMB-320 and AMB-321) were completed at the time of the NDA submission. Three ongoing studies (AMB-220-E, AMB-222, and AMB-320/321-E) provided additional data in both the original NDA and the 4-month safety update, and data from one additional ongoing study (AMB-323) were included in the 4-month safety update.
The cumulative incidence of aminotransferase elevations by severity, summarized as a percentage of the cumulative number of subjects who received ambrisentan in clinical trials, is provided in Table 1. The cumulative incidence of aminotransferase elevations>3×ULN (upper limit of the normal range) accompanied by total bilirubin>2×ULN was 0.3% (2 subjects, both with alternative causes for the liver function test (LFT) abnormalities); the associated mean exposure to ambrisentan was 112.5 weeks (maximum, 341.0 weeks). In comparison, during the 12-week placebo controlled trials, 1 patient (1/132, 0.7%) receiving placebo had elevated aminotransferases (both alanine transaminase (ALT) and aspartate transaminase (AST) were >5×ULN) along with elevated total bilirubin (>2×ULN).

[3] = biological target: T1, breast cancer resistance protein (BCRP) (Homo sapiens, UniProt Q9UNQ0); assay: Inhibition of BCRP, transfected MDCKII cells; type: cell-based; conditions: human, transfected MDCKII cells
T1 construct: expressed in transfected cells; host or cells: MDCKII
T1 sequence (Q9UNQ0 1-655): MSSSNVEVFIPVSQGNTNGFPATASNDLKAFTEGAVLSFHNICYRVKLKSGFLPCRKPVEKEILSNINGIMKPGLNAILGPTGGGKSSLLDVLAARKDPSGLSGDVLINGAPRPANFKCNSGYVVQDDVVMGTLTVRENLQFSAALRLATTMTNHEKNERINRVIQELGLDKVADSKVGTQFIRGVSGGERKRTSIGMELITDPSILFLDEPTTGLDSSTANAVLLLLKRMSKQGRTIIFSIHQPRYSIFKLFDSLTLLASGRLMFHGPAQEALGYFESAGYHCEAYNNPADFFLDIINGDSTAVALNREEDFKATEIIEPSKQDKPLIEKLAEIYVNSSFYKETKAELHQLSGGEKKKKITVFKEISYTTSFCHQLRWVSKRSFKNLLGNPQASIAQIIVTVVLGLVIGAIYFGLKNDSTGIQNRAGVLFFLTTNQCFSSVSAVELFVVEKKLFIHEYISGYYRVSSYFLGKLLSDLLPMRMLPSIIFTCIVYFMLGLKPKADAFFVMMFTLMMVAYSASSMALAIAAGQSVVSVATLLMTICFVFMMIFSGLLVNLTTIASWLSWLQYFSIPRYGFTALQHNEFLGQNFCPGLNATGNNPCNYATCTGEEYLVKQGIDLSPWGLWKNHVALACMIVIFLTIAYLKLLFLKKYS
Experimental: (§1) Inhibition constants (IC50) were measured for human bile salt export pump (BSEP), sodium taurocholate cotransporting polypeptide (NTCP), multidrug resistance protein 2 (MRP2), P-glycoprotein (Pgp), breast cancer resistance protein (BCRP), organic anion-transporting polypeptide 1B1 (OATP1B1), and OATP1B3 in transfected cell-lines. Known inhibitors were used as positive controls.

[4] = biological target: T2, multidrug resistance protein 2 (MRP2) (Homo sapiens, UniProt Q92887); assay: Inhibition of hepatic transporter MRP2, transfected Sf9 cells; type: cell-based
T2 construct: expressed in transfected cells; host or cells: Spodoptera frugiperda (Sf9) ovarian cells
T2 sequence (Q92887 whole entry): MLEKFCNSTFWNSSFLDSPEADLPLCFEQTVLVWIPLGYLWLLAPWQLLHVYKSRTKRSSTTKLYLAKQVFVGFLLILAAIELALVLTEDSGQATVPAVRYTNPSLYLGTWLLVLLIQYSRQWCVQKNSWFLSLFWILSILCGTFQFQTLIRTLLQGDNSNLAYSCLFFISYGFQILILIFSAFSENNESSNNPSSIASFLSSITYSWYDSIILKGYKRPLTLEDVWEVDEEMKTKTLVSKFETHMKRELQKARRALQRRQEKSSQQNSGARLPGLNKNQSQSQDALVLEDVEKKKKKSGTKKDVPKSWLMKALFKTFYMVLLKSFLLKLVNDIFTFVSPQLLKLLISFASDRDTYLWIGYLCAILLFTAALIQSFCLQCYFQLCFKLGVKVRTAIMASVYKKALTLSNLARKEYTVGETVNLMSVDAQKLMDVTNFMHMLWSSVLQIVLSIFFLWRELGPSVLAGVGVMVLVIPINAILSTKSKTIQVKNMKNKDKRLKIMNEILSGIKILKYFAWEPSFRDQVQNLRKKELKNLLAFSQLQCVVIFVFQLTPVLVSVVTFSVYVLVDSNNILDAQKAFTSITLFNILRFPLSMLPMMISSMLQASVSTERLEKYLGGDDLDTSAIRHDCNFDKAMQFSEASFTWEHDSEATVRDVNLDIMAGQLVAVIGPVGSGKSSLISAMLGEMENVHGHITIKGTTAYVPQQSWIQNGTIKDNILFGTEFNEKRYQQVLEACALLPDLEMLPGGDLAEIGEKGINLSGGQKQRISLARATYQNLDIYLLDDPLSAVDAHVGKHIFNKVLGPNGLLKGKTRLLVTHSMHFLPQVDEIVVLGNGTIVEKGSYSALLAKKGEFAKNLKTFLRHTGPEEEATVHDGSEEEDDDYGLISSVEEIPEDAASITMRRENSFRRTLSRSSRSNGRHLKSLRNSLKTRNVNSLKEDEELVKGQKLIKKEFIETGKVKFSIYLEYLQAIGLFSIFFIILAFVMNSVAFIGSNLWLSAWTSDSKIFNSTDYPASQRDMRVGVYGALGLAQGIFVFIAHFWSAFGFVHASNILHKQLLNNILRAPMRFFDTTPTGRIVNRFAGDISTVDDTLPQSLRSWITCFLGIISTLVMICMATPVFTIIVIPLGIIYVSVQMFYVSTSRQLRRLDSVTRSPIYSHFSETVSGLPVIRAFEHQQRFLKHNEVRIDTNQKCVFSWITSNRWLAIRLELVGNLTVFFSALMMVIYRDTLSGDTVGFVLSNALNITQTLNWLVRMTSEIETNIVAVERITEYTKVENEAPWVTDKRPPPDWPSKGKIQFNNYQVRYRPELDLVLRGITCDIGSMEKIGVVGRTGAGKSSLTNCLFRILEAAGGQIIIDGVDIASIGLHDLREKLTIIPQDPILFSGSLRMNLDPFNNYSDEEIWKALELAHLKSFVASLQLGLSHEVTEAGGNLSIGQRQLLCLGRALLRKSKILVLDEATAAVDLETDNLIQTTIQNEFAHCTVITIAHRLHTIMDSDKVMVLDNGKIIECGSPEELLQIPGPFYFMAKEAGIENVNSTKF
Experimental: as §1

[5] = ARIES-1, ambrisentan N = 134, 12-week treatment, intention-to-treat
[6] = >3 × ULN and total bilirubin > 2 × ULN, N = 707
[7] = Total > 3 × ULN, all subjects N = 707

**Q.** Which “Mean change from baseline in 6-minute walk distance” value ([1]; ARIES-1, 5 mg once daily (N = 67)) does the source give for COC(c1ccccc1)(c1ccccc1)[C@H](Oc1nc(C)cc(C)n1)C(=O)O [Ambrisentan, (25)-2-[(4,6-dimethylpyrimidin-2-yl)oxy]-3-methoxy-3,3-diphenylpropanoic acid] here?
**A.** 23 ± 83 meters

**Q.** And the “Placebo-adjusted mean change from baseline in 6-minute walk distance” value ([1]; ARIES-1, 5 mg)?
**A.** 31 meters

**Q.** What about the “Placebo-adjusted median change from baseline in 6-minute walk distance” value ([1]; ARIES-1, 5 mg) of the same compound?
**A.** 27 meters

**Q.** And the “Mean change from baseline in 6-minute walk distance” value ([1]; ARIES-1, 10 mg once daily (N = 67))?
**A.** 44 ± 63 meters

**Q.** And the “Placebo-adjusted mean change from baseline in 6-minute walk distance” value ([1]; ARIES-1, 10 mg)?
**A.** 51 meters

**Q.** What about the “Placebo-adjusted median change from baseline in 6-minute walk distance” value ([1]; ARIES-1, 10 mg) of the same compound?
**A.** 39 meters

**Q.** And the “Clinical worsening, %” value [1, 5]?
**A.** 3%

**Q.** What about the “Clinical worsening, no.” value [1, 5] of the same compound?
**A.** 4

**Q.** And the “Time to clinical worsening, hazard ratio” value ([1]; ARIES-1, versus placebo)?
**A.** 0.28

**Q.** What about the “ALT/AST elevations, patient number” value ([2]; >3 to ≦5 × ULN, N = 707) of the same compound?
**A.** 25

**Q.** And the “ALT/AST elevations, patients (%)” value ([2]; >3 to ≦5 × ULN, N = 707)?
**A.** (3.5) %

**Q.** And the “ALT/AST elevations, patient number” value [2, 6]?
**A.** 2

**Q.** And the “ALT/AST elevations, patients (%)” value [2, 6]?
**A.** (0.3) %

**Q.** What about the “ALT/AST elevations, patients (%)” value ([2]; >3 × ULN and total bilirubin > 2 × ULN, N = 707, listed as ambrisentan) of the same compound?
**A.** 0.3%

**Q.** And the “ALT/AST elevations, patient number” value ([2]; >5 to ≦8 × ULN, N = 707)?
**A.** 1

**Q.** And the “ALT/AST elevations, patients (%)” value ([2]; >5 to ≦8 × ULN, N = 707)?
**A.** (0.1) %

**Q.** What about the “ALT/AST elevations, patient number” value ([2]; >8 × ULN, N = 707) of the same compound?
**A.** 9

**Q.** What about the “ALT/AST elevations, patients (%)” value ([2]; >8 × ULN, N = 707) of the same compound?
**A.** (1.3) %

**Q.** And the “ALT/AST elevations, patient number” value [2, 7]?
**A.** 35

**Q.** And the “ALT/AST elevations, patients (%)” value [2, 7]?
**A.** (5.0) %

**Q.** What does the source list for COc1ccccc1Oc1c(NS(=O)(=O)c2ccc(C(C)(C)C)cc2)nc(-c2ncccn2)nc1OCCO [Bosentan]?
**A.** IC50 [3]: > 100 µM; IC50 [4]: > 100 µM
